Reference: patent US3968251A, “Arylacetylene compounds as antithrombotic agents” (Eli Lilly and Company, priority 1975, dated 1976)
Like-named read-outs stand apart in the source and are kept apart here.

Test system: collagen-induced platelet aggregation
Assay: collagen-induced platelet aggregation after oral dosing (method of Herrmann, et al., 139, 548 (1972))
Type: in vivo, Guinea pig
Conditions: for inhibition at 25 mg/kg: Cavia porcellus, Platelet, po, oral 25 mg/kg, guinea pig, read-out: Percent Inhibition of Collagen-Induced Platelet Aggregation
Procedure: Exp. Biol. Med., 139, 548 (1972).
The effect of (2'-fluoro-4-biphenyl)acetylene on collagen-induced platelet aggregation was tested by the method of Hermann, et al., Proc. Soc. Exp. Biol. Med., 139, 548 (1972). Guinea pigs weighing 300-400 g, were used. The compound was administered by oral dosing. At time intervals after dosing, blood samples were obtained for assessing platelet function. The collagen used to induce platelet aggregation was prepared from a stock solution obtained by solubilizing Sigma bovine Achilles Tendon with acetic acid. […] Each day 0.4 ml of 1 M aqueous hydroxide was added to a 1.0-ml aliquot of the stock solution, followed by further dilution with saline to yield the appropriate dilutions for use.

SMILES: C#Cc1ccc(-c2ccccc2F)cc1 [(2'-fluoro-4-biphenyl)acetylene]
- duration of activity (in words) (20 hours after oral dosing): activity still was observed 20 hours after dosing, indicating a long duration of activity
- inhibition at 25 mg/kg (1.5 h, 90 min. after dosing, collagen dilution 1:4): 13%
- inhibition at 25 mg/kg (1.5 h, 90 min. after dosing, collagen dilution 1:16, significant at P=0.05): 35%
- inhibition at 25 mg/kg (1.5 h, 90 min. after dosing, collagen dilution 1:32, significant at P=0.01): 81%
- inhibition at 25 mg/kg (3 h, 3 hrs. after dosing, collagen dilution 1:4, significant at P=0.01): 44%
- inhibition at 25 mg/kg (3 h, 3 hrs. after dosing, collagen dilution 1:16, significant at P=0.01): 69%
- inhibition at 25 mg/kg (3 h, 3 hrs. after dosing, collagen dilution 1:32, significant at P=0.01): 86%
- inhibition at 25 mg/kg (6 h, 6 hrs. after dosing, collagen dilution 1:4): 16%
- inhibition at 25 mg/kg (6 h, 6 hrs. after dosing, collagen dilution 1:16, significant at P=0.05): 42%
- inhibition at 25 mg/kg (6 h, 6 hrs. after dosing, collagen dilution 1:32, significant at P=0.01): 49%
- inhibition at 25 mg/kg (20 h, 20 hrs. after dosing, collagen dilution 1:4): 18%
- inhibition at 25 mg/kg (20 h, 20 hrs. after dosing, collagen dilution 1:16, significant at P=0.01): 62%
- inhibition at 25 mg/kg (20 h, 20 hrs. after dosing, collagen dilution 1:32, significant at P=0.01): 95%
- inhibition of collagen-induced platelet aggregation (in words) (after oral dosing): active inhibitor of collagen-induced platelet aggregation
- inhibition at highest collagen concentration (in words) (highest collagen concentration, after oral dosing): inhibited only at three hours after dosing
- inhibition of weakest collagen challenge (in words) (weakest collagen challenge, after oral dosing): markedly inhibited at all time intervals after oral dosing
